Results taken from patent publication US20240270715A1, “INHIBITORS OF TRANSGLUTAMINASES” (ZEDIRA GMBH, priority 2021, published 2024).

Legend:
[1] = Log D by shake flask method (octanol / PBS pH 7.4, HPLC); type: physicochemical; conditions: octanol / PBS pH 7.4, shake flask; read-out: logD
Method in brief: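 Log D is derived by HPLC measurement of how the compound distributes between octanol and pH 7.4 phosphate-buffered saline in a shake flask.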

[2] = biological target: T1, recombinant human transglutaminase 2 (Homo sapiens, UniProt P21980); assay: Transglutaminase assay: incorporation of dansylcadaverine into dimethylcasein (DCC-assay); type: biochemical; conditions: recombinant human TG2 10 nM, dansylcadaverine/dimethylcasein; read-out: IC50 TG2
T1 sequence (P21980 1-687): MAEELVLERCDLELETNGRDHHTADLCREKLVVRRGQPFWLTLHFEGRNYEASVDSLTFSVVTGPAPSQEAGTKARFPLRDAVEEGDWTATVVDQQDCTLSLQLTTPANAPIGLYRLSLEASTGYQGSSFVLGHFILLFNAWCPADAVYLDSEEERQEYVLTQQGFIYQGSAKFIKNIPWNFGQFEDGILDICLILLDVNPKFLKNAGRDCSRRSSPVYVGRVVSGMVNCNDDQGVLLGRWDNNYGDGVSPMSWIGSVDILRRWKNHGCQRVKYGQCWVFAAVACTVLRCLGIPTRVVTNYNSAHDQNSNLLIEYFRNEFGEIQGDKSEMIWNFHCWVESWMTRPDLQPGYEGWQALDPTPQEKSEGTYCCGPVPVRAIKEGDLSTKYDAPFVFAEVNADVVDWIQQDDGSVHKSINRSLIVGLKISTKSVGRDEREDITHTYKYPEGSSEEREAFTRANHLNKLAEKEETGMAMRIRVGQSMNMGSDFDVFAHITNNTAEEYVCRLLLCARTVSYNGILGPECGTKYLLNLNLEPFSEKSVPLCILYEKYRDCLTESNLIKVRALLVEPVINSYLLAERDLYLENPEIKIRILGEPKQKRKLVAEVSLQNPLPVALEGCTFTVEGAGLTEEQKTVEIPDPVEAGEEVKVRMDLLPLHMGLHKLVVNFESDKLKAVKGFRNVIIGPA
Method in brief: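 Recombinant human TG2 (10 nM final) incorporates dansylcadaverine (16.7 μM) into N,N-dimethylcasein (4 μM) in Tris-HCl buffer, pH 8.0, with 10 mM CaCl2 and 10 mM glutathione. Fluorescence (λex 330, λem 500 nm) followed 30 min. The slope between 20–30 min gives activity versus DMSO control, and IC50 comes from the concentration–activity plot.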

[3] = Caco-2 permeability assay (CacoReady kit); type: in vitro ADME; conditions: human
Method in brief: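 Compounds are tested on pre-formed Caco-2 barriers supplied as a ready-to-use kit, following the kit protocol, and the Papp value is derived to estimate intestinal absorption.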

| Structure (SMILES) | logD [1] | IC50 [2] | Papp [3] |
| --- | --- | --- | --- |
| CCNC(=O)C(=O)CC[C@H](NC(=O)c1cc2cccnc2nc1C)C(=O)Nc1cccn(CC(=O)NC23CC(C2)C3)c1=O [Compound I-103, (S)-N1-(1-(2-(bicyclo[1.1.1]pentan-1-ylamino)-2-oxoethyl)-2-oxo-1,2-dihydropyridin-3-yl)-N6-ethyl-2-(2-methyl-1,8-naphthyridine-3-carboxamido)-5-oxohexanediamide] | < 1 | 600 to 3500 nM | < 1 ×10⁻⁶ cm/s |
| CCNC(=O)C(=O)CC[C@H](NC(=O)c1ccc2c(c1)CCCN2)C(=O)Nc1cccn(CC(=O)NC23CCC(C2)C3)c1=O [Compound I-104, (S)-N1-(1-(2-(bicyclo[2.1.1]hexan-1-ylamino)-2-oxoethyl)-2-oxo-1,2-dihydropyridin-3-yl)-N6-ethyl-5-oxo-2-(1,2,3,4-tetrahydroquinoline-6-carboxamido)hexanediamide] | < 1 | 600 to 3500 nM | < 1 ×10⁻⁶ cm/s |
| CCNC(=O)C(=O)CC[C@H](NC(=O)c1ccc2c(c1)CC(=O)NC2)C(=O)Nc1cccn(CC(=O)NC2(C(=O)O)C3CC4CC2CC(C(F)(F)F)(C4)C3)c1=O (stereo partly drawn) [Compound I-105, (S)-N1-ethyl-N6-(1-(2-(2-carboxy-2-amino-5-(trifluoromethyl)adamantane)-2-oxoethyl)-2-oxo-1,2-dihydropyridin-3-yl)-2-oxo-5-(3-oxo-1,2,3,4-tetrahydroisoquinoline-6-carboxamido)hexanediamide] | < 1 | 600 to 3500 nM | < 1 ×10⁻⁶ cm/s |
| CCNC(=O)C(=O)CC[C@H](NC(=O)c1ccc2cnccc2n1)C(=O)Nc1cccn(CC(=O)NC2C3CC4CC2CC(CC)(C4)C3)c1=O (stereo partly drawn) [Compound I-106, (S)-N1-ethyl-N6-(1-(2-(5-ethyladamantane-2-amino)-2-oxoethyl)-2-oxo-1,2-dihydropyridin-3-yl)-5-(1,6-naphthyridine-2-carboxamido)-2-oxohexanediamide] | 3 to 5 | 600 to 3500 nM | < 1 ×10⁻⁶ cm/s |
| CCNC(=O)C(=O)CC[C@H](NC(=O)c1nccc2cnccc12)C(=O)Nc1cccn(CC(=O)NC23CCC(C2)C3)c1=O [Compound I-107, (S)-N1-(1-(2-(bicyclo[2.1.1]hexan-1-ylamino)-2-oxoethyl)-2-oxo-1,2-dihydropyridin-3-yl)-N6-ethyl-2-(2,6-naphthyridine-1-carboxamido)-5-oxohexanediamide] | < 1 | 600 to 3500 nM | < 1 ×10⁻⁶ cm/s |
| CCNC(=O)C(=O)CC[C@H](NC(=O)c1nonc1N)C(=O)Nc1cccn(CC(=O)NC23CC(C2)C3)c1=O [Compound I-108, (S)-2-(4-amino-1,2,5-oxadiazole-3-carboxamido)-N1-(1-(2-(bicyclo[1.1.1]pentan-1-ylamino)-2-oxoethyl)-2-oxo-1,2-dihydropyridin-3-yl)-N6-ethyl-5-oxohexanediamide] | < 1 | 600 to 3500 nM | < 1 ×10⁻⁶ cm/s |
| CCNC(=O)C(=O)CC[C@H](NC(=O)c1cnc(NC(C)=O)s1)C(=O)Nc1cccn(CC(=O)NC23CC(C2)C3)c1=O [Compound I-110, (S)-2-(2-acetamidothiazole-5-carboxamido)-N1-(1-(2-(bicyclo[1.1.1]pentan-1-ylamino)-2-oxoethyl)-2-oxo-1,2-dihydropyridin-3-yl)-N6-ethyl-5-oxohexanediamide] | < 1 | 600 to 3500 nM | < 1 ×10⁻⁶ cm/s |
| CCNC(=O)C(=O)CC[C@H](NC(=O)c1c[nH]c(C(N)=O)c1)C(=O)Nc1cccn(CC(=O)NC23CC(C2)C3)c1=O [Compound I-111, (S)-N4-(1-(1-(2-(bicyclo[1.1.1]pentan-1-ylamino)-2-oxoethyl)-2-oxo-1,2-dihydropyridin-3-ylamino)-6-(ethylamino)-1,5,6-trioxohexan-2-yl)-1H-pyrrole-2,4-dicarboxamide] | < 1 | 600 to 3500 nM | < 1 ×10⁻⁶ cm/s |
| CCNC(=O)C(=O)CC[C@H](NC(=O)c1coc(S(N)(=O)=O)c1)C(=O)Nc1cccn(CC(=O)NC2C3CC4CC2CC(NC(C)=O)(C4)C3)c1=O (stereo partly drawn) [Compound I-112, (S)-N1-ethyl-N6-(1-(2-(1-acetylamino-4-aminoadamantane)-2-oxoethyl)-2-oxo-1,2-dihydropyridin-3-yl)-2-oxo-5-(5-sulfamoylfuran-3-carboxamido)hexanediamide] | < 1 | 600 to 3500 nM | < 1 ×10⁻⁶ cm/s |

Other lines, results leading:

| logD [1] | IC50 [2] | Papp [3] | Structure (SMILES) |
| --- | --- | --- | --- |
| 3 to 5 | 600 to 3500 nM | < 1 ×10⁻⁶ cm/s | CCNC(=O)C(=O)CC[C@H](NC(=O)c1csc2nc(C)cn12)C(=O)Nc1cccn(CC(=O)NC2C3CC4CC(C3)CC2C4)c1=O (stereo partly drawn) [Compound I-96, (S)-N1-ethyl-N6-(1-(2-(2-adamantylamino)-2-oxoethyl)-2-oxo-1,2-dihydropyridin-3-yl)-5-(6-methylimidazo[2,1-b]thiazole-3-carboxamido)-2-oxohexanediamide] |
| 1 to 3 | 150 to 600 nM | 1 to 10 ×10⁻⁶ cm/s | CCNC(=O)C(=O)CC[C@H](NC(=O)c1nc2ccccc2s1)C(=O)Nc1cccn(CC(=O)N[C@@H]2C[C@@H]3CC[C@H]2C3)c1=O [Compound I-97, (S)-2-(benzo[d]thiazole-2-carboxamido)-N1-(1-(2-((1S,2R,4R)-bicyclo[2.2.1]heptan-2-ylamino)-2-oxoethyl)-2-oxo-1,2-dihydropyridin-3-yl)-N6-ethyl-5-oxohexanediamide] |
| 1 to 3 | 600 to 3500 nM | < 1 ×10⁻⁶ cm/s | CCNC(=O)C(=O)CC[C@H](NC(=O)c1cn2ccsc2n1)C(=O)Nc1cccn(CC(=O)N[C@@H]2C[C@@H]3CC[C@H]2C3)c1=O [Compound I-98, (S)-N1-(1-(2-((1S,2R,4R)-bicyclo[2.2.1]heptan-2-ylamino)-2-oxoethyl)-2-oxo-1,2-dihydropyridin-3-yl)-N6-ethyl-2-(imidazo[2,1-b]thiazole-6-carboxamido)-5-oxohexanediamide] |
| 3 to 5 | 600 to 3500 nM | < 1 ×10⁻⁶ cm/s | CCNC(=O)C(=O)CC[C@H](NC(=O)c1cnc2ccc(OC(F)(F)F)cc2c1O)C(=O)Nc1cccn(CC(=O)N[C@@H]2C[C@@H]3CC[C@H]2C3)c1=O [Compound I-99, (S)-N1-(1-(2-((1S,2R,4R)-bicyclo[2.2.1]heptan-2-ylamino)-2-oxoethyl)-2-oxo-1,2-dihydropyridin-3-yl)-N6-ethyl-2-(4-hydroxy-6-(trifluoromethoxy)quinoline-3-carboxamido)-5-oxohexanediamide] |
| < 1 | 600 to 3500 nM | < 1 ×10⁻⁶ cm/s | CCNC(=O)C(=O)CC[C@H](NC(=O)c1cc2ccccc2nn1)C(=O)Nc1cccn(CC(=O)NC23CC(C2)C3)c1=O [Compound I-100, (S)-N1-(1-(2-(bicyclo[1.1.1]pentan-1-ylamino)-2-oxoethyl)-2-oxo-1,2-dihydropyridin-3-yl)-2-(cinnoline-3-carboxamido)-N6-ethyl-5-oxohexanediamide] |
| < 1 | 150 to 600 nM | 1 to 10 ×10⁻⁶ cm/s | CCNC(=O)C(=O)CC[C@H](NC(=O)c1oc2ccccc2c1CC)C(=O)Nc1cccn(CC(=O)NC23CC(C2)C3)c1=O [Compound I-101, (S)-N1-(1-(2-(bicyclo[1.1.1]pentan-1-ylamino)-2-oxoethyl)-2-oxo-1,2-dihydropyridin-3-yl)-N6-ethyl-2-(3-ethylbenzofuran-2-carboxamido)-5-oxohexanediamide] |
| 1 to 3 | 150 to 600 nM | 1 to 10 ×10⁻⁶ cm/s | CCNC(=O)C(=O)CC[C@H](NC(=O)c1cc2ccccc2n1CC)C(=O)Nc1cccn(CC(=O)NC23CC(C2)C3)c1=O [Compound I-102, (S)-N1-(1-(2-(bicyclo[1.1.1]pentan-1-ylamino)-2-oxoethyl)-2-oxo-1,2-dihydropyridin-3-yl)-N6-ethyl-2-(1-ethyl-1H-indole-2-carboxamido)-5-oxohexanediamide] |
| < 1 | 150 to 600 nM | < 1 ×10⁻⁶ cm/s | CCNC(=O)C(=O)CC[C@H](NC(=O)c1cc2ccc(N(C)C)cc2o1)C(=O)Nc1cccn(CC(=O)NC23CC(C2)C3)c1=O [Compound I-109, (S)-N1-(1-(2-(bicyclo[1.1.1]pentan-1-ylamino)-2-oxoethyl)-2-oxo-1,2-dihydropyridin-3-yl)-2-(6-(dimethylamino)benzofuran-2-carboxamido)-N6-ethyl-5-oxohexanediamide] |
| < 1 | 150 to 600 nM | < 1 ×10⁻⁶ cm/s | CCNC(=O)C(=O)CC[C@H](NC(=O)c1ccc2occc2c1)C(=O)Nc1cccn(CC(=O)NC2C3CC4CC2CC(NC(C)=O)(C4)C3)c1=O (stereo partly drawn) [Compound I-113, (S)-2-(benzofuran-5-carboxamido)-N6-ethyl-N1-(1-(2-(1-acetylamino-4-aminoadamantane)-2-oxoethyl)-2-oxo-1,2-dihydropyridin-3-yl)-5-oxohexanediamide] |
